The values below are quoted from earlier work in patent US20140271892A1, “PHENYLEPHRINE RESINATE PARTICLES HAVING GOOD AUC” (McNeil-PPC, Inc., priority 2013, published 2014).

For series [1] the following is noted: therapeutic dose.
For series [2] the following is noted: 30 mg dose administered orally over eight hours.

Structures are written as SMILES.

As to `CC(=O)Nc1ccc(O)cc1` [acetaminophen, Acetaminophen], the “excreted unchanged in the urine” value in series [1] was “Less than 9 % of a therapeutic dose”.

For the molecule `CNC[C@H](O)c1cccc(O)c1` [phenylephrine, (R)-1-(3-hydroxyphenyl)-2-methylaminoethanol], in series [2], the metabolized to m-hydroxy-phenylglycol-sulfate is listed as 6 % of the dose, the “metabolized to m-hydroxymandelic acid” value is 30 % of the dose, the metabolized to phenylephrine-glucuronide is listed as 12 % of the dose and the metabolized to phenylephrine-sulfate was 47 % of the dose.
